From patent US20230285576A1, “TREATMENT OF CANCER USING A CYCLODEXTRIN-CONTAINING POLYMER-TOPOISOMERASE INHIBITOR CONJUGATE AND A PARP INHIBITOR” (ELLIPSES PHARMA LTD, priority 2020, published 2023) come the findings set out here.

Read-outs that look alike come from different tables or passages of the source.

Assay [1] concerns carbonic anhydrase 9 (CA9). The assay can be described thus: CA9 immunostaining in HT-29 colorectal xenograft tumours. It is filed as in vivo, nude mouse. Particulars: 7 days after a single IV treatment; CRLX-101 5 mg/kg, CPT 0.5 mg/kg.
Source text: Tumours were harvested 7 days after treatment and immunostained with anti-CA9 antibody. Scale bar=50 μm.
Assay [2] relates to NCI-H417a small-cell lung cancer tumour. It is filed as in vivo. Particulars: wild type BRCA1 and BRCA2.
In assay [3] the test system is Capan-1. In words: MTS viability assay, CRLX-101 alone and with Olaparib, Capan-1 (schedule 1). It is filed as cell-based. Particulars: Homo sapiens, 72 hours, Olaparib alone. The procedure: (§1) The optimal seeding density for each cell line (DU145, Capan-1, Hs 766T, PANC-1, NUGC4, HEY, OVCAR3, OAW28 and NCI-H510A) will be determined prior to running the assay. Cells will be seeded in 50 μL media (in triplicate for each condition). Three 96 well flat bottom tissue culture plates will be required per cell line (See appendix I). Cells will be allowed to adhere overnight at 37° C., 5% CO2, 20% O2 before compound is added.
(§2) Day 5: Analysis of Proliferation • Remove plates from the incubator and perform a Cell Titre 96 Aqueous One Solution Cell Proliferation Assay (Promega #G3582) according to the manufacturers protocol. • Record absorbance at 490 nm using colorimetric plate reader.
On the technique in general: Formazan colour is commonly taken as a measure of viable cells.

Assay [4] concerns Capan-1. In words: MTS viability assay, CRLX-101 alone and with Olaparib, Capan-1 (schedule 2). The class given is cell-based. Particulars: Homo sapiens. The procedure: as §1, §2
Another assay has as its system DU145. The assay can be described thus: MTS viability assay, CRLX-101 alone and with Olaparib, DU145. The class given is cell-based. Particulars: Homo sapiens, DU-145, 72 hours, Olaparib alone. The procedure:
as §1, §2

The next assay concerns Hs 766T. The assay can be described thus: MTS viability assay, CRLX-101 alone and with Olaparib, Hs 766T. It is filed as cell-based. Particulars: Hs766T, 72 hours, Olaparib alone, read-out: IC50 relative. The procedure: as §1, §2
For another assay, the system named is OVCAR3. The assay can be described thus: MTS viability assay, CRLX-101 alone and with Olaparib, OVCAR3. It is filed as cell-based. Particulars: Homo sapiens, OVCAR-3, 72 hours, Olaparib alone. On the procedure:
as §1, §2

A further assay deals with PANC-1. The assay can be described thus: MTS viability assay, CRLX-101 alone and with Olaparib, PANC-1. The class given is cell-based. Particulars: Homo sapiens, 72 hours, Olaparib alone. The procedure:
as §1, §2

The next assay relates to NCI-H510A. The assay can be described thus: MTS viability assay, CRLX-101 alone and with Olaparib, NCI-H510A. The class given is cell-based. Particulars: Homo sapiens, 72 hours, Olaparib alone, read-out: IC50 relative. The procedure: as §1, §2
In the next assay the test system is NUGC4. The assay can be described thus: MTS viability assay, CRLX-101 alone and with Olaparib, NUGC4. The class given is cell-based. Particulars: Homo sapiens, NUGC-4, 72 hours, Olaparib alone, read-out: IC50 relative. On the procedure: as §1, §2
The test system of a further assay is OAW28. The assay can be described thus: MTS viability assay, CRLX-101 alone and with Olaparib, OAW28. It is filed as cell-based. Particulars: Homo sapiens, OAW-28, 72 hours, Olaparib alone, read-out: IC50 relative. On the procedure:
as §1, §2

Assay [5] deals with SKOV-3 human ovarian xenograft. Particulars: CRLX-101 9 mg/kg and/or Paclitaxel 30 mg/kg, QW × 3 IV. An excerpt: Body weight curves are means relative to the initial body weight, with bars indicating standard deviation. Survival is indicated as the percentage of animals remaining on study because mice bearing tumours that reached a predetermined cut off size (1500 mm3) were removed from the experiment.

The next assay deals with HIF-1α. The assay can be described thus: HIF-1α protein levels after CRLX-101 alone or combined with antiangiogenic drugs in A2780 ovarian tumour model. The class given is in vivo, athymic nude mice. Particulars: for HIF-1Q % of Control mean + SD: CRLX-101 5 mg/kg QW × 2, n=3.
A further assay relates to HIF-2α. In words: Time course of HIF-2α inhibition in xenograft tumours (western blot). Particulars: single dose; same time period. The class given is in vivo, nude mouse. For orientation: A western blot detects proteins with antibodies after separation by electrophoresis.
The next assay concerns SUM159 tumours. In words: Tumour growth and tumour-initiating capacity in orthotopic SUM159 triple-negative breast cancer model. It is filed as in vivo, mice. Particulars: pre-treatment for 2 weeks. An excerpt:
Such stimulation of CSCs could increase drug resistance and metastasis, and may be further enhanced by treatment with antiangiogenic drugs, which can increase tumour hypoxia by reducing blood flow to tumours. Inhibition of HIF-1α might therefore be beneficial to patients by reducing CSCs in tumours. […] Previously published studies have shown that Bevacizumab increases the CSC population mediated primarily by hypoxia induced up-regulation of HIF-1α. […] At the end of these 2 weeks, tumours were extracted and 100 tumour cells were implanted orthotopically into new, untreated mice.
Mice were dosed for two weeks at the dose level and frequency indicated in the legend. Tumour growth curves represent mean tumour volume and error bars represent standard deviation.

[6] abbreviates: Mus musculus, A2780, read-out: HIF-1Q % of Control mean + SD.

Procedure for HIF-2α: Tumours were flash-frozen and HIF-1α or HIF-2α protein levels were measured via western blot analysis, quantified using infrared fluorescence detection, normalised to actin levels and calculated as a percentage of HIF protein levels in saline-treated mice.

Regarding `CC[C@@]1(O)C(=O)OCc2c1cc1n(c2=O)Cc2cc3ccccc3nc2-1` [CPT, 20(S)-Camptothecin], the “Inhibition of CA9 in tumours” value in assay [1] is “not”.

Usually IC50 stands for the concentration that gives 50% inhibition. For `O=C(c1cc(Cc2n[nH]c(=O)c3ccccc23)ccc1F)N1CCN(C(=O)C2CC2)CC1` [Olaparib, 4-[3-(4-cyclopropanecarbonyl-piperazine-1-carbonyl)-4-fluoro-benzyl]-2H-phthalazin-1-one], the “Response of the model to monotherapy” value in [2] was “relatively non-responsive”. For the same compound, the IC50 with Capan-1 [3] (read-out: IC50 Absolute) was 40.1 µM; with Capan-1 [3] (read-out: IC50 relative) it was 5.71 µM; with Capan-1 [4] (CAPAN-1, read-out: IC50 relative), 0.00546 µM; in the assay on Capan-1 [4] (Capan-1 (schedule 2), Olaparib alone, read-out: IC50 Absolute), 488 µM; with DU145 (read-out: IC50 Absolute), 93.1 µM; in the assay on DU145 (read-out: IC50 relative), 11.6 µM. Also, the IC50 with Hs 766T came out at 14.1 µM; in the assay on OVCAR3 (read-out: IC50 Absolute), 43.4 µM; with OVCAR3 (read-out: IC50 relative), 3.03 µM; with PANC-1 (read-out: IC50 Absolute), 79.2 µM; in the assay with PANC-1 (read-out: IC50 relative), 9.26 µM; in the assay with NCI-H510A, 2.66 µM. For the same compound, the results for the IC50 with NUGC4 and in the assay with OAW28 were approximately 11.5 µM and approximately 8.88 µM, respectively.

Regarding `CC(=O)O[C@H]1C(=O)[C@@]2(C)[C@H]([C@H](OC(=O)c3ccccc3)[C@]3(O)C[C@H](OC(=O)[C@H](O)[C@@H](NC(=O)c4ccccc4)c4ccccc4)C(C)=C1C3(C)C)[C@]1(OC(C)=O)CO[C@@H]1C[C@@H]2O` [Paclitaxel], in [5] (N=10), the “CR (complete regressions)” value is recorded as 1, the “PR (partial regressions)” value amounted to 0 and the “TFS (tumour-free survivors)” value stood at 1. Besides, the “Median TTE” value in assay [5] (endpoint 1500 mm3, N=10) stood at 42.8 days. Also, the TGD in assay [5] (vs control group) worked out at 18%.

Take `Cc1ccc(Nc2nccc(N(C)c3ccc4c(C)n(C)nc4c3)n2)cc1S(N)(=O)=O` [Pazopanib]: the HIF-1α protein level (% of control) at 150 mg/kg with HIF-1α (setting [6]) amounted to 226 ± 127%.

With `CNC(=O)c1cc(Oc2ccc(NC(=O)Nc3ccc(Cl)c(C(F)(F)F)c3)c(F)c2)ccn1` [Regorafenib], the HIF-1α protein level (% of control) at 50 mg/kg in the assay on HIF-1α (setting [6]) is 171 ± 4%.

`CC[C@@]1(O)C(=O)OCc2c1cc1n(c2=O)Cc2cc3c(CN(C)C)c(O)ccc3nc2-1` [Topotecan]: the “Inhibition of HIF-2α, in words” value in the assay on HIF-2α is “unable to significantly inhibit”.

Take Aflibercept: antiangiogenic drug: in the assay on HIF-1α (Aflibercept study, Aflibercept 25 mg/kg Days 1, 4, 8), the “HIF-1Q % of Control mean + SD” value is 235 ± 80%.

Consider “Bevacizumab: antiangiogenic drug, anti-VEGF antibody”, for which the “Tumour-initiating capacity of 100 re-implanted tumour cells” value in the assay on SUM159 tumours was “enhanced tumour-initiating capacity compared to control”. Besides, the “HIF-1Q % of Control mean + SD” value in the assay with HIF-1α (Bevacizumab study, Bevacizumab 5 mg/kg Days 1, 4, 8) was found to be 127 ± 18%.
